{"source": "patent US4211764A", "about": "“Gastric secretion stimulation with 2-amino-5-(2-aminoethyl)-1,3,4-thiadiozole” (priority 1978, dated 1980)", "key": {"[1]": {"tested_on": "gastric secretion of patients", "test": "Clinical comparison of thidazine with simple histamine test", "assay_type": "in vivo, human", "conditions": "20 patients; thidazine 1.5 mg/kg parenteral, histamine 0.01 mg/kg; >0.05", "excerpt": "Special attention was paid to side effects and the reproductibility of the secretory response after repeated administrations of the drug."}, "dog's stomach": {"tested_on": "dog's stomach", "test": "Gastric secretion in dogs, administration per os", "assay_type": "in vivo", "description": "Chronic experiments were performed on male dogs weighing 20 to 25 kg and having a gastric fistula; prior to experiments, the animals were starved for 18 hours."}, "Acute toxicity, rats": {"test": "Acute toxicity, rats", "conditions": "rat, in vivo, ip; male rats, 200-250 g, i/p", "excerpt": "The results of the tests are generalized in Table 1."}, "male rabbits": {"tested_on": "male rabbits", "conditions": "rabbit, in vivo", "description": "| D. Allergic Action | (Arthus-Sakharov Phenomenon) | Daily injections to male rabbits | weighing 3.0 kg, during 6 to 7 days: | test group, hypodermic injections of | 0.1 ml of 1% solution | control group, injections of 0.1 ml | of normal horse serum"}, "Respiration": {"tested_on": "Respiration", "test": "Effects on depth and rate of respiration", "assay_type": "in vivo, rabbits and cats", "excerpt": "E. Effects on Depth and Rate of\nRespiration (rabbits and cats)"}, "[2]": {"conditions": "0.1-0.2 mg/kg i/m, Control Period"}, "[3]": {"conditions": "0.1-0.2 mg/kg i/v, Control Period"}}, "note": "“Also recorded” adds a separate entry of the source."}
{"smiles": "NCCc1nnc(N)s1", "note": "[Thidazine, 2-amino-5-(2-aminoethyl)-1,3,4-thiadiazole]", "values": [{"measurement": "Free Acidity", "setting": "[1]", "result": "77.0+20 units"}, {"measurement": "HCl Output", "setting": "[1]", "result": "12.2 ± 0.7", "unit": "milliequivalents per hour"}, {"measurement": "Peak HCl Output", "setting": "[1]", "result": "8.9+0.3 milliequivalents"}, {"measurement": "Total Acidity", "setting": "[1]", "result": "90.3+22 units"}, {"measurement": "maximum level of gastric secretion", "setting": "dog's stomach; per os, 100 mg per head", "result": 26, "unit": "mEq per hour"}, {"measurement": "gastric secretion after administration per os", "setting": "dog's stomach; thidazine 100 mg per head (parenterally and per os), histamine 10 and 20 mg, histalog 50 and 100 mg", "result": "can produce a maximum secretory effect when administered both parenterally and per os; also recorded: can produce a maximum secretion in a dog's stomach when administered both parenterally and perorally"}, {"measurement": "LD50", "setting": "Acute toxicity, rats", "result": 1, "unit": "mg/kg"}, {"measurement": "Allergic Action (Arthus-Sakharov Phenomenon)", "setting": "male rabbits", "result": "Negative reaction"}, {"measurement": "Respiration amplitude", "setting": "Respiration; 1 mg/kg i/v, Control Period", "result": "10.0 ± 0.8", "unit": "mm"}, {"measurement": "Respiration rate per minute", "setting": "Respiration; 1 mg/kg i/v, Control Period", "result": "120 ± 10.0", "unit": "per minute"}, {"measurement": "Respiration amplitude", "setting": "Respiration; 1 mg/kg i/v, Test Period", "result": "14.0 ± 0.4", "unit": "mm"}, {"measurement": "Respiration rate per minute", "setting": "Respiration; 1 mg/kg i/v, Test Period", "result": "85.0 ± 6.0", "unit": "per minute"}, {"measurement": "Respiration amplitude", "setting": "Respiration; 2 mg/kg i/v, Control Period", "result": "110.0 ± 7.0", "unit": "mm"}, {"measurement": "Respiration rate per minute", "setting": "Respiration; 2 mg/kg i/v, Control Period", "result": "100.0 ± 8.0", "unit": "per minute"}, {"measurement": "Respiration amplitude", "setting": "Respiration; 2 mg/kg i/v, Test Period", "result": "140 ± 20.0", "unit": "mm"}, {"measurement": "Respiration rate per minute", "setting": "Respiration; 2 mg/kg i/v, Test Period", "result": "85.0 ± 10.0", "unit": "per minute"}, {"measurement": "Respiration amplitude", "setting": "Respiration; [2]", "result": "160.0 ± 6.2", "unit": "mm"}, {"measurement": "Respiration rate per minute", "setting": "Respiration; [2]", "result": "79.0 ± 2.0", "unit": "per minute"}, {"measurement": "Respiration amplitude", "setting": "Respiration; 0.1-0.2 mg/kg i/m, Test Period", "result": "160 ± 10.1", "unit": "mm"}, {"measurement": "Respiration rate per minute", "setting": "Respiration; 0.1-0.2 mg/kg i/m, Test Period", "result": "78.0 ± 2.3", "unit": "per minute"}, {"measurement": "Respiration amplitude", "setting": "Respiration; [3]", "result": "220 ± 0.3", "unit": "mm"}, {"measurement": "Respiration rate per minute", "setting": "Respiration; [3]", "result": "90.0 ± 0.2", "unit": "per minute"}, {"measurement": "Respiration amplitude", "setting": "Respiration; 0.1-0.2 mg/kg i/v, Test Period", "result": "180 ± 0.1", "unit": "mm"}, {"measurement": "Respiration rate per minute", "setting": "Respiration; 0.1-0.2 mg/kg i/v, Test Period", "result": "85.0 ± 0.4", "unit": "per minute"}]}
